Assays:
CLB-BAR cells = assay: Neuroblastoma xenograft mouse model with tumor immunohistochemistry; format: in vivo, BALB/cAnNRj-Foxn1nu mice; details: for CD31 (vascularization) in tumors / Ki-67 positivity in tumors, analysis by Ilastik / cleaved caspase positive apoptotic cells in tumors vs vehicle / phospho-histone H3 in tumors vs vehicle / Ki-67 manual analysis, lower median when compared to vehicle (95% CI): day 14; for CD31 (vascularization) in tumors / Ki-67 positivity in tumors, analysis by Ilastik / cleaved caspase positive apoptotic cells in tumors vs vehicle / phospho-histone H3 in tumors vs vehicle: alectinib 20 mg/kg, crizotinib 80 mg/kg once daily; for Ki-67 manual analysis, lower median when compared to vehicle (95% CI): counts normalized against vehicle, 4 independent investigators
Protocol: Results for repotrectinib will be presented elsewhere. […] Tumor volume was measured by calipers every second day and calculated by the following equation: V = (π/6) × L × W^2 (V, volume; L, longest; W, width).
At the end of the experiment xenograft tumors (n = 5 for each tumor category) were harvested and fixed in 4% paraformaldehyde for 72 h. Following fixation, the tumors were imbedded in paraffin blocks and sectioned in […] slices with a manual microtome. Heat-induced epitope retrieval (HIER), using citrate buffer 0.01 M, pH 6, was performed before staining. HIER was achieved through a sequence where citrate buffer, containing the slides, was brought up to boiling, sub-boiled for 5 min following 10 s of intermediate cooling. The sequence was performed three times with cooling (5 min) in between. Following washing in distillated H2O (3 × 5 min), the slides were immerged in 3% H2O2 for 15 min and then washed in tris-buffered saline-Tween 20 (TBST) for 5 min. A hydrophobic pen was used to set a margin encircling the samples on the slides. […] The slides were incubated for 48 h in a cold room after being covered with antibody diluent. […] Additional washing steps in TBST (3 × 5 min) were carried out. […] The slides were counterstained with Mayer's hematoxylin solution (Sigma-Aldrich SLBK8961V), dehydrated and mounted.
Hamamatsu NanoZoomer-SQ Digital slide scanner (C13140-01) with a x20 (NA 0.75) objective was used to obtain digital images of the slides. Slides were randomly blinded to the investigator. For each of the blinded slides, a representative 1 mm^2 area was selected employing NanoZoomer Digital Pathology viewer. The slide-image was cropped, containing the area of interest, and saved, as a TIF-file at × 20 resolution. The saved TIF-files were cropped, using ImageJ (Fiji) ([44]), into merely encompassing the 1 mm^2 area of interest.
The 6–7 images were then uploaded into Ilastik ([45]), an interactive machine-learning toolkit, and used as a learning foundation for the software (see program code, Supplementary Data Sheet 3). Once the software analyzed the learning images, the whole batches were processed in Ilastik. The output was then transferred to ImageJ where a macro (see program code, Supplementary Data Sheet 2) calculated the area of staining. The pixel size acquired from NanoZoomer Digital Pathology viewer was accounted for in the macro. Ki-67 immunohistochemistry was also analyzed manually. […] Ninety five percent confidence intervals for the difference between median were retrieved with GraphPad.
GraphPad Prism 7.0 was used for statistical analysis. A non-parametric test was performed acquiring P-values by applying a Mann-Whitney test.

CLB-BAR [1] = assay: Apoptosis analysis, cleaved PARP immunoblot; format: cell-based; details: 100 nM, 24 h
CLB-GE [2] = assay: Cell cycle analysis (DAPI, NucleoCounter NC-3000); details: 24 h, 75 and 150 nM
IMR-32 = assay: Apoptosis analysis, cleaved PARP immunoblot; format: cell-based; details: IMR-32, 100 nM, 24 h
Protocol: (§1) Supplementary Figure 3. Investigation of apoptosis in wild type neuroblastoma cell lines when treated with alectinib. […] Cell lysates were immunoblotted for PARP and ERK (employed as loading control). […] Three independent experiments were performed.

CLB-PE = assay: Apoptosis analysis, cleaved PARP immunoblot; format: cell-based; details: 100 nM, 24 h
Protocol: as §1

CLB-GE [3] = assay: Apoptosis analysis, cleaved PARP immunoblot; format: cell-based; details: 100 nM, 24 h
[4] = test system: SK-N-AS (11q-del, K-RasQ61K); assay: Apoptosis analysis, cleaved PARP immunoblot; format: cell-based; details: 100 nM, 24 h
SK-N-AS = assay: Cell cycle analysis (DAPI, NucleoCounter NC-3000); details: SK-N-AS control cell line, 24 h, 75 and 150 nM
CLB-BAR [5] = assay: Cell cycle analysis (DAPI, NucleoCounter NC-3000); details: 24 h, 75 and 150 nM

| SMILES | growth of neuroblastoma xenografts (CLB-BAR cells; 20 mg/kg bodyweight once daily, 14 days, vs vehicle) | body weight and side effects during treatment (CLB-BAR cells; 20 mg/kg once daily, 14 days) | xenograft tumor volume compared with vehicle (CLB-BAR cells; 20 mg/kg once daily, day 6 p = 0.0222, day 8 p < 0.0001, day 14 p = 0.0072) | tumor growth inhibition compared with crizotinib (CLB-BAR cells; alectinib 20 mg/kg vs crizotinib 80 mg/kg once daily, 14 days) | CD31 (vascularization) in tumors (CLB-BAR cells) | Ki-67 positivity in tumors, analysis by Ilastik (CLB-BAR cells) | cleaved caspase positive apoptotic cells in tumors vs vehicle (CLB-BAR cells) | phospho-histone H3 in tumors vs vehicle (CLB-BAR cells) | Ki-67 manual analysis, lower median when compared to vehicle (95% CI) (CLB-BAR cells) | cleaved PARP levels (CLB-BAR [1]) | cell cycle progression, G1 accumulation (CLB-GE [2]) | cleaved PARP levels (IMR-32) | cleaved PARP levels (CLB-PE) | cleaved PARP levels (CLB-GE [3]) | cleaved PARP levels [4] | cell cycle progression, G1 accumulation (SK-N-AS) | cell cycle progression, G1 accumulation (CLB-BAR [5]) |
| --- | --- | --- | --- | --- | --- | --- | --- | --- | --- | --- | --- | --- | --- | --- | --- | --- | --- |
| CCc1cc2c(cc1N1CCC(N3CCOCC3)CC1)C(C)(C)c1[nH]c3cc(C#N)ccc3c1C2=O [alectinib] | effectively abrogated growth | No difference in body weight or obvious side effects | significantly reduced | more effective than with crizotinib | significant increase | non-significant decrease | significantly lower | significant decrease | 0.46 (95% CI 0.32–0.52) | significant increase of cleaved PARP levels | increased G1 accumulation | no difference was observed | no difference was observed | significant increase of cleaved PARP levels | no difference was observed | not observed | increased G1 accumulation |
| C[C@@H](Oc1cc(-c2cnn(C3CCNCC3)c2)cnc1N)c1c(Cl)ccc(F)c1Cl [crizotinib] | – | – | – | – | significant increase | modest, but significant reduction | non-significant decrease | not observed | 0.49 (95% CI 0.47–0.50) | – | – | – | – | – | – | – | – |

From paper PMC6625372 (Frontiers in Oncology, 2019)
